Assay results reported in paper PMC8545135, “Discovery of Bacterial Fimbria–Glycan Interactions Using Whole-Cell Recombinant Escherichia coli Expression” (mBio, 2021).

Tests used:
[1] = molecular target: T1, K88 (E. coli); F4ac (K88ac) fimbriae, MS428(pK88-AC) (Escherichia coli, UniProt P14190); test: whole-cell SPR, Biacore T200, C1 chip, single-cycle kinetics; assay type: cell-based; details: fimbriae on immobilized whole cells; MS428 reference cell
T1 construct: gene faeG; native F4ac fimbriae on whole cells of fim-negative E. coli MS428, plasmid pK88-AC with F4ac gene cluster
Source text: whole-cell SPR, Biacore T200, C1 chip, single-cycle kinetics on K88 (E. coli); F4ac (K88ac) fimbriae, MS428(pK88-AC)

[2] = molecular target: T2, FimH^LD (purified FimH lectin-binding domain) (Escherichia coli, UniProt P08191); test: SPR, CM5 chip, immobilized protein; details: glycans 1.6 nM to 1 μM
T2 construct: purified as previously described
Source text: SPR, CM5 chip, immobilized protein on FimH^LD (purified FimH lectin-binding domain)

[3] = molecular target: T3, FimH (E. coli); type 1 fimbriae, MS428(pPKL4) (Escherichia coli, UniProt P08191); test: whole-cell SPR, Biacore T200, C1 chip, single-cycle kinetics; assay type: cell-based; details: fimbriae on immobilized whole cells; MS428 reference cell
T3 construct: with Type-1 fimbrial protein, A chain; Protein FimF; Protein FimG
Source text: whole-cell SPR, Biacore T200, C1 chip, single-cycle kinetics on FimH (E. coli); type 1 fimbriae, MS428(pPKL4)

T2 sequence (P08191 22-179): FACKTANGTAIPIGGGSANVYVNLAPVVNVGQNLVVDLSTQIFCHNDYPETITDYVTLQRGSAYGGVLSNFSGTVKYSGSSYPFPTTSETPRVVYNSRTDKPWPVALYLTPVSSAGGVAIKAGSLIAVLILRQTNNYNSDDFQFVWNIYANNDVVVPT
T1 sequence (P14190 22-283 limits assumed): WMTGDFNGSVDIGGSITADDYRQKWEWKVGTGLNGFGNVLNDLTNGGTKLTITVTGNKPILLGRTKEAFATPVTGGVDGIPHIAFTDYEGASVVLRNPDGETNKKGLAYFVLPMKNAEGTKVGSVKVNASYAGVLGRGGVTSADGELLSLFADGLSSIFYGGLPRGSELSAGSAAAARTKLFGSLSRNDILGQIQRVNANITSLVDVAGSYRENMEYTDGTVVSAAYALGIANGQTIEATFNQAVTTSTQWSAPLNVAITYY
T3 sequence (P08191 22-300): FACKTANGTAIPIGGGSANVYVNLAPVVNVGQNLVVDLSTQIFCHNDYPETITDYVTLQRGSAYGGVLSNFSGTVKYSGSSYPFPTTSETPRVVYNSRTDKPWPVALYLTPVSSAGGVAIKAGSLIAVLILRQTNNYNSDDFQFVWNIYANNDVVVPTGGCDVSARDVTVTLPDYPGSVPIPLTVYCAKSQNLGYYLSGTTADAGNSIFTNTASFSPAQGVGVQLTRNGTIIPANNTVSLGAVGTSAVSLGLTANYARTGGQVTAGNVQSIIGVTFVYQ
T3 sequence (P04128 24-182, further chain): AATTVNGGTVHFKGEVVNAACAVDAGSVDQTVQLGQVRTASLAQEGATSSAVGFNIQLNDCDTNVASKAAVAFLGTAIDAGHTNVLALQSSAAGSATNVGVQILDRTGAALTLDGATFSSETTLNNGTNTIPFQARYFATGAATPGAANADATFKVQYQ

Compound | Disassociation constant^a: / K88 (E. coli) [1] [µM] | Disassociation constant^a: / FimH (protein) [2] [nM] | Disassociation constant^a: / FimH (E. coli) [3] [nM]
CC(=O)N[C@H]1[C@H](O[C@@H]2[C@H](O)[C@@H](O)[C@H](O[C@H]3[C@H](O)[C@@H](O)C(O)O[C@@H]3CO)O[C@@H]2CO)O[C@H](CO)[C@H](O)[C@@H]1O[C@@H]1O[C@H](CO)[C@H](O)[C@H](O)[C@H]1O (stereo partly drawn) [1F, AsialoGM1] | 11.02 ± 3.9 | – | –
OC[C@H]1O[C@H](O[C@H]2[C@@H](O)[C@@H](CO)OC(O)[C@@H]2O)[C@H](O)[C@@H](O)[C@H]1O (stereo partly drawn) [Galα1-3Gal] | 0.1603 ± 0.03 | – | –
Man5NAc | – | 25.9 ± 8.9 | 27.4 ± 16.8
OCC1OC(OCC2OC(OCC3OC(O)C(O)C(OC4OC(CO)C(O)C(O)C4O)C3O)C(O)C(OC3OC(CO)C(O)C(O)C3O)C2O)C(O)C(O)C1O (stereo not drawn) [Man5] | – | 607 ± 142 | 2000 ± 842
